{"source": "ChEMBL document CHEMBL1697821", "about": "“Development of a phospholipidosis database and predictive quantitative structure-activity relationship (QSAR) models” (Toxicol Mech Methods, 2008)"}
{"test_system": "Phospholipidosis", "test": "Literature-mined public compounds from Kruhlak et al phospholipidosis modelling dataset"}
{"smiles": "CCN(CC)CCNC(=O)c1ccc(N)cc1", "note": "[PROCAINAMIDE]", "Phospholipidosis": "Negative: confirmed by electron microscopy"}
{"smiles": "CCCN(CCC)C(=O)C(CCC(=O)O)NC(=O)c1ccccc1", "note": "(stereo not given) [PROGLUMIDE]", "Phospholipidosis": "Negative: based on the absence of positive reported data from WMDD"}
{"smiles": "CN(C)CCCN1c2ccccc2Sc2ccccc21", "note": "[PROMAZINE]", "Phospholipidosis": "Positive: weak inducer based on presence of foamy macrophages and cytoplasmic vacuolations"}
{"smiles": "CC(CN1c2ccccc2Sc2ccccc21)N(C)C", "note": "(stereo not given) [PROMETHAZINE]", "Phospholipidosis": "Positive: weak inducer based on presence of foamy macrophages and cytoplasmic vacuolations"}
{"smiles": "CC(C)[N+](C)(CCOC(=O)C1c2ccccc2Oc2ccccc21)C(C)C.[Br-]", "note": "[PROPANTHELINE BROMIDE]", "Phospholipidosis": "Negative: based on the absence of positive reported data from WMDD"}
{"smiles": "CCC(=O)c1ccc2c(c1)N(CC(C)N(C)C)c1ccccc1S2", "note": "(stereo not given) [PROPIOMAZINE]", "Phospholipidosis": "Negative: based on the absence of positive reported data from WMDD"}
{"smiles": "CCC(=O)O[C@](Cc1ccccc1)(c1ccccc1)[C@H](C)CN(C)C", "note": "[PROPOXYPHENE]", "Phospholipidosis": "Negative: based on the absence of positive reported data from WMDD"}
{"smiles": "CC(C)NCC(O)COc1cccc2ccccc12", "note": "(stereo not given) [PROPRANOLOL]", "Phospholipidosis": "Positive: weak inducer based on presence of foamy macrophages and cytoplasmic vacuolations"}
{"smiles": "CCCOC(=O)c1ccc(O)cc1", "note": "[PROPYLPARABEN]", "Phospholipidosis": "Negative: based on the absence of positive reported data from WMDD"}
{"smiles": "Cc1ccc2c(-c3ccccc3)nc(=O)n(C(C)C)c2c1", "note": "[PROQUAZONE]", "Phospholipidosis": "Negative: based on the absence of positive reported data from WMDD"}
{"smiles": "C[C@@H]1O[C@@H](O[C@@H]2C=C3CC[C@@H]4[C@H](CC[C@]5(C)[C@@H](c6ccc(=O)oc6)CC[C@]45O)[C@@]3(C)CC2)[C@H](O)[C@H](O)[C@H]1O", "note": "[PROSCILLARIDIN]", "Phospholipidosis": "Negative: based on the absence of positive reported data from WMDD"}
{"smiles": "CNCCCC1c2ccccc2C=Cc2ccccc21", "note": "[PROTRIPTYLINE]", "Phospholipidosis": "Negative: based on the absence of positive reported data from WMDD"}
{"smiles": "CC(O)Cn1cnc2c1c(=O)n(C)c(=O)n2C", "note": "(stereo not given) [PROXYPHYLLINE]", "Phospholipidosis": "Negative: based on the absence of positive reported data from WMDD"}
{"smiles": "CN[C@@H](C)[C@@H](O)c1ccccc1", "note": "[PSEUDOEPHEDRINE]", "Phospholipidosis": "Negative: based on the absence of positive reported data from WMDD"}
{"smiles": "Clc1ccc(C/C(=C\\CN2CCCC2)c2ccccc2)cc1", "note": "[PYRROBUTAMINE]", "Phospholipidosis": "Negative: based on the absence of positive reported data from WMDD"}
{"smiles": "CCN(CC)CCCC(C)Nc1c2ccc(Cl)cc2nc2ccc(OC)cc12", "note": "(stereo not given) [QUINACRINE]", "Phospholipidosis": "Positive: strong inducer confirmed by electron microscopy"}
{"smiles": "CCC1NC(=O)c2cc(S(N)(=O)=O)c(Cl)cc2N1", "note": "(stereo not given) [QUINETHAZONE]", "Phospholipidosis": "Negative: based on the absence of positive reported data from WMDD"}
{"smiles": "C=C[C@H]1C[N@@]2CC[C@H]1C[C@@H]2[C@@H](O)c1ccnc2ccc(OC)cc12", "note": "[QUINIDINE]", "Phospholipidosis": "Positive: weak inducer based on presence of foamy macrophages and cytoplasmic vacuolations"}
{"smiles": "CC(CN1CC(=O)NC(=O)C1)N1CC(=O)NC(=O)C1", "note": "(stereo not given) [RAZOXANE]", "Phospholipidosis": "Negative: based on the absence of positive reported data from WMDD"}
{"smiles": "CC1=C(/C=C/C(C)=C/C=C/C(C)=C/CO)C(C)(C)CCC1", "note": "[RETINOL]", "Phospholipidosis": "Negative: based on the absence of positive reported data from WMDD"}
{"smiles": "NC(=O)c1ncn([C@@H]2O[C@H](CO)[C@@H](O)[C@H]2O)n1", "note": "[RIBAVIRIN]", "Phospholipidosis": "Negative: based on the absence of positive reported data from WMDD"}
{"smiles": "Cc1cc2nc3c(=O)[nH]c(=O)nc-3n(C[C@H](O)[C@H](O)[C@H](O)COP(=O)(O)O)c2cc1C", "note": "[RIBOFLAVIN 5'-PHOSPHATE]", "Phospholipidosis": "Negative: based on the absence of positive reported data from WMDD"}
{"smiles": "Cc1cc2nc3c(=O)[nH]c(=O)nc-3n(C[C@H](O)[C@H](O)[C@H](O)CO)c2cc1C", "note": "[RIBOFLAVIN]", "Phospholipidosis": "Negative: based on the absence of positive reported data from WMDD"}
{"smiles": "CCn1nc(C)c2c1C(c1ccccc1)=NCC(=O)N2", "note": "[RIPAZEPAM]", "Phospholipidosis": "Negative: based on the absence of positive reported data from WMDD"}
{"smiles": "CN(C)CCc1c[nH]c2ccc(Cn3cncn3)cc12", "note": "[RIZATRIPTAN]", "Phospholipidosis": "Negative: based on the absence of positive reported data from WMDD"}
{"smiles": "CS(=O)(=O)c1ccc(C2=C(c3ccccc3)C(=O)OC2)cc1", "note": "[ROFECOXIB]", "Phospholipidosis": "Negative: based on the absence of positive reported data from WMDD"}
{"smiles": "CCCC(=O)O[C@H]1[C@H](C)O[C@@H](O[C@H]2[C@H](N(C)C)[C@@H](O)[C@H](O[C@H]3[C@@H](CC=O)C[C@@H](C)[C@@H](O)/C=C/C=C/C[C@@H](C)OC(=O)C[C@@H](O)[C@@H]3OC)O[C@@H]2C)C[C@@]1(C)OC(=O)CC", "note": "[ROKITAMYCIN]", "Phospholipidosis": "Negative: based on the absence of positive reported data from WMDD"}
{"smiles": "O=C(Oc1ccccc1C(=O)O)c1ccccc1O", "note": "[SALSALATE]", "Phospholipidosis": "Negative: based on the absence of positive reported data from WMDD"}
{"smiles": "C=CCC1(C(C)CCC)C(=O)NC(=O)NC1=O", "note": "(stereo not given) [SECOBARBITAL]", "Phospholipidosis": "Negative: based on the absence of positive reported data from WMDD"}
{"smiles": "C#CCN(C)[C@H](C)Cc1ccccc1", "note": "[SELEGILINE]", "Phospholipidosis": "Negative: based on the absence of positive reported data from WMDD"}
{"smiles": "O=C(O)c1cc(O)c2c(c1)[C@@H]([C@H]1c3cc(C(=O)O)cc(O)c3C(=O)c3c(O[C@@H]4O[C@H](CO)[C@@H](O)[C@H](O)[C@H]4O)cccc31)c1cccc(O[C@@H]3O[C@H](CO)[C@@H](O)[C@H](O)[C@H]3O)c1C2=O", "note": "[SENNOSIDE B]", "Phospholipidosis": "Negative: based on the absence of positive reported data from WMDD"}
{"smiles": "CN[C@H]1CC[C@@H](c2ccc(Cl)c(Cl)c2)c2ccccc21", "note": "[SERTRALINE]", "Phospholipidosis": "Positive: weak inducer based on presence of foamy macrophages and cytoplasmic vacuolations"}
{"smiles": "OC[C@@H](O)[C@@H](O)[C@H](O)[C@@H](O)CO", "note": "[SORBITOL]", "Phospholipidosis": "Negative: based on the absence of positive reported data from WMDD"}
{"smiles": "CC(C)NCC(O)c1ccc(NS(C)(=O)=O)cc1", "note": "(stereo not given) [SOTALOL]", "Phospholipidosis": "Negative: confirmed by electron microscopy"}
{"smiles": "CN[C@@H]1[C@H](O)[C@H](NC)[C@H]2O[C@@]3(O)C(=O)C[C@@H](C)O[C@H]3O[C@@H]2[C@H]1O", "note": "[SPECTINOMYCIN]", "Phospholipidosis": "Positive: weak inducer based on presence of foamy macrophages and cytoplasmic vacuolations"}
{"smiles": "O=C1CSC2(CCN(CCCN3c4ccccc4Sc4ccc(Cl)cc43)CC2)N1", "note": "[SPICLOMAZINE]", "Phospholipidosis": "Negative: based on the absence of positive reported data from WMDD"}
{"smiles": "N=C(N)c1ccc(/C=C/c2ccc(C(=N)N)cc2)cc1", "note": "[STILBAMIDINE]", "Phospholipidosis": "Positive: weak inducer based on presence of foamy macrophages and cytoplasmic vacuolations"}
{"smiles": "[H]/N=C(/N)N[C@H]1[C@H](O)[C@@H](O)[C@H](O[C@@H]2O[C@@H](C)[C@](O)(C=O)[C@H]2O[C@@H]2O[C@@H](CO)[C@H](O)[C@@H](O)[C@@H]2NC)[C@@H](N/C(N)=N\\[H])[C@@H]1O", "note": "[STREPTOMYCIN]", "Phospholipidosis": "Negative: based on the absence of positive reported data from WMDD"}
{"smiles": "O=C1C[C@@H]2OCC=C3CN4CC[C@]56c7ccccc7N1[C@H]5[C@H]2[C@H]3C[C@H]46", "note": "[STRYCHNINE]", "Phospholipidosis": "Negative: based on the absence of positive reported data from WMDD"}
{"smiles": "O=C(O)CCC(=O)O", "note": "[SUCCINIC ACID]", "Phospholipidosis": "Negative: based on the absence of positive reported data from WMDD"}
{"smiles": "COc1cc(NS(=O)(=O)c2ccc(N)cc2)nc(OC)n1", "note": "[SULFADIMETHOXINE]", "Phospholipidosis": "Negative: based on the absence of positive reported data from WMDD"}
{"smiles": "COc1ncnc(NS(=O)(=O)c2ccc(N)cc2)c1OC", "note": "[SULFADOXINE]", "Phospholipidosis": "Negative: based on the absence of positive reported data from WMDD"}
{"smiles": "Cc1cc(NS(=O)(=O)c2ccc(N)cc2)no1", "note": "[SULFAMETHOXAZOLE]", "Phospholipidosis": "Negative: confirmed by electron microscopy"}
{"smiles": "O=C1OC(c2ccc(O)c(S(=O)(=O)O)c2)(c2ccc(O)c(S(=O)(=O)O)c2)c2c(Br)c(Br)c(Br)c(Br)c21", "note": "[SULFOBROMOPHTHALEIN]", "Phospholipidosis": "Negative: based on the absence of positive reported data from WMDD"}
{"smiles": "Cc1ccc(C(=O)Nc2ccc(S(=O)(=O)O)c3cc(S(=O)(=O)O)cc(S(=O)(=O)O)c23)cc1NC(=O)c1cccc(NC(=O)Nc2cccc(C(=O)Nc3cc(C(=O)Nc4ccc(S(=O)(=O)O)c5cc(S(=O)(=O)O)cc(S(=O)(=O)O)c45)ccc3C)c2)c1", "note": "[SURAMIN]", "Phospholipidosis": "Positive: weak inducer based on presence of foamy macrophages and cytoplasmic vacuolations"}
{"smiles": "C[N+](C)(C)CCOC(=O)CCC(=O)OCC[N+](C)(C)C", "note": "[SUXAMETHONIUM]", "Phospholipidosis": "Negative: based on the absence of positive reported data from WMDD"}
{"smiles": "CC/C(=C(\\c1ccccc1)c1ccc(OCCN(C)C)cc1)c1ccccc1", "note": "[TAMOXIFEN]", "Phospholipidosis": "Positive: strong inducer confirmed by electron microscopy"}
{"smiles": "C[C@]1(Cn2ccnn2)[C@H](C(=O)O)N2C(=O)C[C@H]2S1(=O)=O", "note": "[TAZOBACTAM]", "Phospholipidosis": "Negative: based on the absence of positive reported data from WMDD"}
{"smiles": "COc1cc2nc(N3CCN(C(=O)C4CCCO4)CC3)nc(N)c2cc1OC", "note": "(stereo not given) [TERAZOSIN]", "Phospholipidosis": "Negative: based on the absence of positive reported data from WMDD"}
{"smiles": "CN(C/C=C/C#CC(C)(C)C)Cc1cccc2ccccc12", "note": "[TERBINAFINE]", "Phospholipidosis": "Negative: based on the absence of positive reported data from WMDD"}
{"smiles": "CC(C)(C)NCC(O)c1cc(O)cc(O)c1", "note": "(stereo not given) [TERBUTALINE]", "Phospholipidosis": "Negative: based on the absence of positive reported data from WMDD"}
{"smiles": "CC1(O)CCC(C(C)(C)O)CC1.O", "note": "(stereo not given) [TERPIN HYDRATE]", "Phospholipidosis": "Negative: based on the absence of positive reported data from WMDD"}
{"smiles": "CN(C)[C@@H]1C(O)=C(C(N)=O)C(=O)[C@@]2(O)C(O)=C3C(=O)c4c(O)cccc4[C@@](C)(O)[C@H]3C[C@@H]12", "note": "[TETRACYCLINE]", "Phospholipidosis": "Negative: confirmed by electron microscopy"}
{"smiles": "O=C1CCC(N2C(=O)c3ccccc3C2=O)C(=O)N1", "note": "(stereo not given) [THALIDOMIDE]", "Phospholipidosis": "Negative: based on the absence of positive reported data from WMDD"}
{"smiles": "CS(=O)(=O)c1ccc([C@H](O)[C@@H](COC(=O)CN)NC(=O)C(Cl)Cl)cc1", "note": "[THIAMPHENICOL GLYCINATE]", "Phospholipidosis": "Negative: based on the absence of positive reported data from WMDD"}
